Measured values as given in patent US20100029654A1, “CARDIOVASCULAR COMPOSITIONS AND USE OF THE SAME FOR THE TREATMENT OF ALZHEIMER'S DISEASE” (MOUNT SINAI SCHOOL OF MEDICINE, priority 2006, published 2010).
Structures can show the parent of a compound that is named as a salt. Where two headings read alike, the source gives them in different places.

Tests used:
Aβ1-42 = Aβ1-42 content in conditioned medium of primary cortico-hippocampal neuron cultures from Tg2576 mice (ELISA; primary and secondary dose-response screening); assay type: cell-based, mouse; conditions: for activity at 100 µM: Mus musculus, Neuron, 24 h, read-out: Ab1-42 (% of ctl); for activity at 100 µM / Ab1-42 (% of ctl): drug 100 μM; for reducing Aβ1-42: <85% of ctl
Description: (§1) Potential Aβ-lowering activity was assessed for 150 commercially available cardiovascular drugs using primary cortico-hippocampal neuron cultures derived from embryonic Tg2576 (El 6). […] All cardiovascular reagents were obtained from MicroSource Discovery Systems Inc (Gaylordsville, Conn.). […] Individual cardiovascular agents were applied directly to the culture medium (final 1% DMSO in the culture media). In control studies, parallel Tg2576 primary neuron cultures were treated with vehicle (1% DMSO) alone. The influence of drug treatments in Aβ content in the conditioned medium in treated cultures was assessed by assessing steady state levels of Aβ1-40 and Aβ1-42 in the culture media 24 hours after treatment.
(§2) Embryonic brain tissue was mechanically triturated and centrifuged. Neurons were seeded onto poly-D-lysine-coated 96-well plates at 1.0×10^5 cells per well and cultured in the serum-free chemically-defined medium Neurobasal, supplemented with 2% B27, 0.5 mM L-glutamine and 1% penicillin-streptomycin (Gibco-BRL).
(§3) For primary screening, cultured neurons were treated with 100 μM of drug in duplicates for 16 hours; all drugs were obtained in stock from MicroSource Discovery Systems Inc (Gaylordsville, Conn.). Conditioned medium was collected for Aβ detection using commercially available ELISA kits (BioSource). […] Primary neurons prepared in 96-well plates were treated with 0.1 μM, 1 μM, 10 μM, 50 μM, and 100 μM of each drug in duplicate for ˜16 hours and conditioned medium was collected for Aβ detection.

[1] = system: primary cortico-hippocampal neuron cultures; experiment: lactate dehydrogenase (LDH) activity assay in parallel neuron cultures
Description: For in vitro treatments drugs available from “The Spectrum Collection” in stocks of 10 mM in DMSO were applied directly to cultures to the desired concentrations (final 1% DMSO); control primary neuron cultures from Tg2576 embryos were treated with vehicle resulting in a final 1% DMSO.
Cell viability was assessed using a commercial available LDH assay kit according to the manufacture's instruction (Promega).

[2] = system: primary cortico-hippocampal neuron cultures; experiment: MTT in primary screening
Aβ1-40 = Aβ1-40 content in conditioned medium of primary cortico-hippocampal neuron cultures from Tg2576 mice (ELISA; primary and secondary dose-response screening); assay type: cell-based, mouse; conditions: for activity at 100 µM: Mus musculus, Neuron, 24 h, read-out: Ab1-40 (% of ctl); for activity at 100 µM / Ab1-40 (% of ctl): drug 100 μM; for reduced Aβ1-40: <85% of ctl
Description: as §1, §2, §3

[3] = Primary Screening, table sorted by Aβ1-40
[4] = primary screening, Tg2576 neuron cultures, table sorted by Aβ1-42
[5] = primary screening, table sorted by Aβ1-42

Row | LDH (% of ctl) [1, 3] | LDH (% of ctl) [1, 5] | MTT (% of ctl) [2, 3] | MTT (% of ctl) [2, 5] | LDH at E-5M % of change ([1]; drug at E-5M) [%] | EC50 (Aβ1-40; secondary dose-response screening 0.01-100 μM, 24 hours, read-out: EC50 (molar) Aβ1-40) [µM] | Compound | activity at 100 µM (Aβ1-42; [3]) [%] | activity at 100 µM (Aβ1-42; [4]) [%] | activity at 100 µM (Aβ1-40; [3]) [%] | activity at 100 µM (Aβ1-40; [4]) [%] | Ab1-42 (% of ctl) (Aβ1-42; [3]) | reducing Aβ1-42 (Aβ1-42; primary screening) | Ab1-42 (% of ctl) (Aβ1-42; [4]) | Ab1-40 (% of ctl) (Aβ1-40; [3]) | reduced Aβ1-40 (Aβ1-40; primary screening) | Ab1-40 (% of ctl) (Aβ1-40; [4])
1 | 135.0 % of ctl | 135.0 % of ctl | 108.6 % of ctl | 108.6 % of ctl |  |  | CCC(C(N)=O)c1ccccc1 (stereo not shown) [Fenbutyramide] | 96.3 | 96.3 | 91.6 | 91.6 |  |  |  |  |  | 
2 | 96.6 % of ctl | 96.6 % of ctl | 103.2 % of ctl | 103.2 % of ctl |  |  | CCN(CC)CCOC(=O)C(Cc1cccc2ccccc12)CC1CCCO1 (stereo not shown) [Nafronyl Oxalate] | 145 | 145 | 134 | 134 |  |  |  |  |  | 
3 | 99.4 % of ctl | 99.4 % of ctl | 98.4 % of ctl | 98.4 % of ctl |  |  | CC(C)c1c(C(=O)Nc2ccccc2)c(-c2ccccc2)c(-c2ccc(F)cc2)n1CC[C@@H](O)C[C@@H](O)CC(=O)[O-].CC(C)c1c(C(=O)Nc2ccccc2)c(-c2ccccc2)c(-c2ccc(F)cc2)n1CC[C@@H](O)C[C@@H](O)CC(=O)[O-].[Ca+2] [Atorvastatin Calcium] |  |  |  |  | 76.9 % of ctl | useful in reducing Aβ1-42 | 76.9 % of ctl | 66.0 % of ctl | reduced Aβ1-40 | 66.0 % of ctl
4 | 192.3 % of ctl | 192.3 % of ctl | 70.2 % of ctl | 70.2 % of ctl |  |  | Phenylbutyrate Sodium |  |  |  |  | 86.6 % of ctl |  | 86.6 % of ctl | 102.1 % of ctl |  | 102.1 % of ctl
5 | 106.2 % of ctl | 106.2 % of ctl | 99.8 % of ctl | 99.8 % of ctl |  |  | CO[C@]12C[C@@H](COC(=O)c3cncc(Br)c3)CN(C)[C@@H]1Cc1cn(C)c3cccc2c13 [Nicergoline] | 98.5 | 98.5 | 76.1 | 76.1 |  |  |  |  | reduced Aβ1-40 | 
6 | 109.4 % of ctl | 109.4 % of ctl | 98.0 % of ctl | 98.0 % of ctl |  |  | COC(=O)[C@H]1[C@H]2C[C@H]3c4[nH]c5ccccc5c4CCN3C[C@H]2CC[C@@H]1O [Rauwolscine Hydrochloride] | 74.3 | 74.3 | 103 | 103 |  | useful in reducing Aβ1-42 |  |  |  | 
7 | 117.6 % of ctl | 117.6 % of ctl | 112.5 % of ctl | 112.5 % of ctl |  |  | COc1ccc2cc1Oc1ccc(cc1)C[C@H]1c3cc(c(OC)cc3CCN1C)Oc1c(OC)c(OC)cc3c1[C@H](C2)N(C)CC3 [Tetrandrine] | 25.2 | 25.2 | 4.5 | 4.5 |  |  |  |  |  | 
8 | 112.8 % of ctl | 112.8 % of ctl | 96.8 % of ctl | 96.8 % of ctl |  |  | NC[C@H]1CC[C@H](C(=O)O)CC1 [Tranexamic Acid] | 53.9 | 53.9 | 84.9 | 84.9 |  | useful in reducing Aβ1-42 |  |  | reduced Aβ1-40 | 
9 | 104.7 % of ctl | 104.7 % of ctl | 88.9 % of ctl | 88.9 % of ctl | 5.0 | 36.1 | NS(=O)(=O)c1cc2c(cc1C(F)(F)F)NC(Cc1ccccc1)NS2(=O)=O (stereo not shown) [Bendrofumethiazide] |  |  |  |  | 58.4 % of ctl | useful in reducing Aβ1-42 | 58.4 % of ctl | 76.2 % of ctl | reduced Aβ1-40 | 76.2 % of ctl
10 | 113.7 % of ctl | 113.7 % of ctl | 95.2 % of ctl | 95.2 % of ctl |  |  | CCCNCC(O)COc1ccccc1C(=O)CCc1ccccc1 (stereo not shown) [Propafenone Hydrochloride] | 56.4 | 56.4 | 36.3 | 36.3 |  | useful in reducing Aβ1-42 |  |  | reduced Aβ1-40 | 
11 | 128.0 % of ctl | 128.0 % of ctl | 92.2 % of ctl | 92.2 % of ctl |  |  | C=CCc1ccccc1OCC(O)CNC(C)C (stereo not shown) [Alprenolol] | 106 | 106 | 93.8 | 93.8 |  |  |  |  |  | 
12 | 118.0 % of ctl | 118.0 % of ctl | 103.8 % of ctl | 103.8 % of ctl |  |  | C[N+]1(CCCCC[N+]2(C)CCCC2)CCCC1 [Pentolinium Tartrate] | 134 | 134 | 121 | 121 |  |  |  |  |  | 
13 | 1188.9 % of ctl | 1188.9 % of ctl | 13.3 % of ctl | 13.3 % of ctl |  |  | CCOC(=O)C1=C(COCCN)NC(C)=C(C(=O)OC)C1c1ccccc1Cl (stereo not shown) [Amlodipine Besylate] | 10.2 | 10.2 | 4.9 | 4.9 |  | useful in reducing Aβ1-42 |  |  | reduced Aβ1-40 | 
14 | 118.3 % of ctl | 118.3 % of ctl | 84.5 % of ctl | 84.5 % of ctl |  |  | O=c1cc(-c2ccccc2)oc2cc(O)cc(O)c12 [Chrysin] | 83.4 | 83.4 | 71.6 | 71.6 |  |  |  |  |  | 
15 | 120.4 % of ctl | 120.4 % of ctl | 59.4 % of ctl | 59.4 % of ctl |  |  | Fc1ccc(C(c2ccc(F)cc2)N2CCN(C/C=C/c3ccccc3)CC2)cc1 [Flunarizine Hydrochloride] | 53.3 | 53.3 | 42.1 | 42.1 |  | useful in reducing Aβ1-42 |  |  | reduced Aβ1-40 | 
16 | 140.0 % of ctl | 140.0 % of ctl | 97.5 % of ctl | 97.5 % of ctl |  |  | CC(C)OC(=O)C(C)(C)Oc1ccc(C(=O)c2ccc(Cl)cc2)cc1 [Fenofibrate] | 77.7 | 77.7 | 13.9 | 13.9 |  |  |  |  |  | 
17 | 171.7 % of ctl | 171.7 % of ctl | 98.9 % of ctl | 98.9 % of ctl |  |  | CC(C)NCC(O)COc1cccc2[nH]ccc12 (stereo not shown) [Pindolol] | 46.1 | 46.1 | 99 | 99 |  | useful in reducing Aβ1-42 |  |  |  | 
18 | 97.0 % of ctl | 97.0 % of ctl | 97.3 % of ctl | 97.3 % of ctl |  |  | Cc1cc(C(C)(C)C)c(O)c(C)c1CC1=NCCN1 [Oxymetazoline Hydrochloride] | 44.9 | 44.9 | 78 | 78 |  | useful in reducing Aβ1-42 |  |  | reduced Aβ1-40 | 

Row | Compound | LDH (% of ctl) [1, 3] | LDH (% of ctl) [1, 5] | MTT (% of ctl) [2, 3] | MTT (% of ctl) [2, 5] | LDH at E-5M % of change ([1]; drug at E-5M) [%] | EC50 (Aβ1-40; secondary dose-response screening 0.01-100 μM, 24 hours, read-out: EC50 (molar) Aβ1-40) [µM] | activity at 100 µM (Aβ1-42; [3]) [%] | activity at 100 µM (Aβ1-42; [4]) [%] | activity at 100 µM (Aβ1-40; [3]) [%] | activity at 100 µM (Aβ1-40; [4]) [%] | Ab1-42 (% of ctl) (Aβ1-42; [3]) | reducing Aβ1-42 (Aβ1-42; primary screening) | Ab1-42 (% of ctl) (Aβ1-42; [4]) | Ab1-40 (% of ctl) (Aβ1-40; [3]) | reduced Aβ1-40 (Aβ1-40; primary screening) | Ab1-40 (% of ctl) (Aβ1-40; [4])
19 | O=[N+]([O-])O[C@H]1CO[C@H]2[C@@H]1OC[C@H]2O[N+](=O)[O-] [Isosorbide Dinitrate] | 124.6 % of ctl | 124.6 % of ctl | 100.8 % of ctl | 100.8 % of ctl |  |  |  |  |  |  |  | useful in reducing Aβ1-42 |  |  | reduced Aβ1-40 | 
